Patent US8334287B2 (Hoffmann-La Roche Inc., priority 2009, dated 2012)

molecular target: T1, human mGlu5a receptor (Homo sapiens, UniProt P41594); test: mGlu5a receptor binding, displacement of [3H]MPEP; settings: competing radioligand [3H]MPEP; human mGlu5a receptor transiently transfected into EBNA cells; Ki=IC50/1+L/Kd
T1 construct: expressed in transfected cells; host or cells: EBNA cells (transient transfection); membranes prepared from them
Protocol: For binding experiments, cDNA encoding human mGlu5a receptor was transiently transfected into EBNA cells using a procedure described by E.-J. Schlaeger and K. Christensen (Cytotechnology 1998, 15, 1-13). For functional assays, [Ca^2+]i measurements were performed largely as described previously (Porter et al., Br J. Pharmacol 1999, 128, 13-20) on stably expressed recombinant human mGlu 5a receptors in HEK-293 cells. The cells were dye loaded using Fluo 4-AM (purchased from Molecular Probes, 2 μM final concentration) [Ca^2+]i measurements were performed using a fluorometric imaging plate reader (FLIPR, Molecular Devices Corporation, La Jolla, Calif., USA). Antagonist evaluation was performed following a 5 minute preincubation with the test compounds followed by the addition of a submaximal addition of agonist.
The inhibition (antagonists) curves were fitted with a four parameter logistic equation giving IC50, and Hill coefficient using the iterative non linear curve fitting software Xcel fit.
The Ki values of the compounds tested are given. The Ki value is defined by the following formula: Ki=IC50/1+L/Kd in which the IC50 values are those concentrations of the compounds tested in which causes 50% inhibition of the competing radioligand ([^3H]MPEP). [L] is the concentration of radioligand used in the binding experiment and the Kd value of the radioligand is empiracally determined for each batch of membranes prepared.

T1 sequence (P41594 21-1180 isoform P41594-2 limits assumed): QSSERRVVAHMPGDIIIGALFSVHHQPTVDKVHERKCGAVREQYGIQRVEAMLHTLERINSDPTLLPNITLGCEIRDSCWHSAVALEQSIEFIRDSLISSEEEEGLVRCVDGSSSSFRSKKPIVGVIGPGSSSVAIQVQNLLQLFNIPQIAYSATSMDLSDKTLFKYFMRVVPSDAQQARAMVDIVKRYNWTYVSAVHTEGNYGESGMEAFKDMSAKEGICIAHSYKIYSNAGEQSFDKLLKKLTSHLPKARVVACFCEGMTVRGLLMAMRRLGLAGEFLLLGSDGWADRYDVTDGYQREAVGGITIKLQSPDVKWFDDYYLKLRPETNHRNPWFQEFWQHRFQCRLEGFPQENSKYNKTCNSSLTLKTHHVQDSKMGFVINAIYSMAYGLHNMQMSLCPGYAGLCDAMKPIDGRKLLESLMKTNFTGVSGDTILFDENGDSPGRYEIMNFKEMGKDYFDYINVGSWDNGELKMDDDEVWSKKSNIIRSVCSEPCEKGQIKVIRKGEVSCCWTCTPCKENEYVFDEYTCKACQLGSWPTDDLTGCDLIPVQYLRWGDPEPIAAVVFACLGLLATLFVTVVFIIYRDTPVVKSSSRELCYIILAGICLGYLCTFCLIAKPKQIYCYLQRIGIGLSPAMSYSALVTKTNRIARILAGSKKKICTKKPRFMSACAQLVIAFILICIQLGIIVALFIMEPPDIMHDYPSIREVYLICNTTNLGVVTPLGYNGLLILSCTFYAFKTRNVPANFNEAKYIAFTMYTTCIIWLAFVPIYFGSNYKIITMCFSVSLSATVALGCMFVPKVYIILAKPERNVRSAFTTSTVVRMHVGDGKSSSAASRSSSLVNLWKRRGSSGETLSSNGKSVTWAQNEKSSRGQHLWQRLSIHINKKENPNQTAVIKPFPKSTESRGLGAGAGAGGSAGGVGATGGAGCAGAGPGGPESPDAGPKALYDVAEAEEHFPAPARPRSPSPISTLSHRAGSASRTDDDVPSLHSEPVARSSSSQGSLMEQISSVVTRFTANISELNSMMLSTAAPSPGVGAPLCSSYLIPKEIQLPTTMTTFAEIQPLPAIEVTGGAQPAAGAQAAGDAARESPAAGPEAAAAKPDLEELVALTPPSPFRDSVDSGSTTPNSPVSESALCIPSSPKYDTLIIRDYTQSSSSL

Question: For `Cc1nc(C#Cc2cccc(Cl)c2)cn1-c1cc[nH]c(=O)c1` [Example 1, 4-[4-(3-chloro-phenylethynyl)-2-methyl-imidazol-1-yl]-1H-pyridin-2-one], which Ki is on record?
Answer: 40 nM

Question: Which Ki does the source give for `Cc1nc(C#Cc2cccc(Cl)c2)cn1-c1ccn(C)c(=O)c1` [Example 2, 4-[4-(3-chloro-phenylethynyl)-2-methyl-imidazol-1-yl]-1-methyl-1H-pyridin-2-one] here?
Answer: 69 nM

Question: How did the Ki turn out when `CCn1ccc(-n2cc(C#Cc3cccc(Cl)c3)nc2C)cc1=O` [Example 3, 4-[4-(3-chloro-phenylethynyl)-2-methyl-imidazol-1-yl]-1-ethyl-1H-pyridin-2-one] was run?
Answer: 39 nM

Question: For `Cc1nc(C#Cc2cccc(Cl)c2)cn1-c1ccn(CCO)c(=O)c1` [Example 4, 4-[4-(3-chloro-phenylethynyl)-2-methyl-imidazol-1-yl]-1-(2-hydroxy-ethyl)-1H-pyridin-2-one], which Ki is on record?
Answer: 345 nM

Question: Which Ki does the source give for `COCCn1ccc(-n2cc(C#Cc3cccc(Cl)c3)nc2C)cc1=O` [Example 5, 4-[4-(3-chloro-phenylethynyl)-2-methyl-imidazol-1-yl]-1-(2-methoxy-ethyl)-1H-pyridin-2-one] here?
Answer: 44 nM

Question: Which Ki does the source give for `Cc1nc(C#Cc2ccnc(Cl)c2)cn1-c1cc[nH]c(=O)c1` [Example 6, 4-[4-(2-chloro-pyridin-4-ylethynyl)-2-methyl-imidazol-1-yl]-1H-pyridin-2-one] here?
Answer: 146 nM

Question: Which Ki does the source give for `Cc1nc(C#Cc2ccnc(Cl)c2)cn1-c1ccn(C)c(=O)c1` [Example 7, 4-[4-(2-chloro-pyridin-4-ylethynyl)-2-methyl-imidazol-1-yl]-1-methyl-1H-pyridin-2-one] here?
Answer: 180 nM

Question: Which Ki does the source give for `Cc1cccc(C#Cc2cn(-c3cc[nH]c(=O)c3)c(C)n2)c1` [Example 8, 4-(2-Methyl-4-m-tolylethynyl-imidazol-1-yl)-1H-pyridin-2-one] here?
Answer: 113 nM

Question: For `Cc1cccc(C#Cc2cn(-c3ccn(C)c(=O)c3)c(C)n2)c1` [Example 9, 1-Methyl-4-(2-methyl-4-m-tolylethynyl-imidazol-1-yl)-1H-pyridin-2-one], which Ki is on record?
Answer: 42 nM

Question: How did the Ki turn out when `CCn1ccc(-n2cc(C#Cc3cccc(C)c3)nc2C)cc1=O` [Example 10, 1-Ethyl-4-(2-methyl-4-m-tolylethynyl-imidazol-1-yl)-1H-pyridin-2-one] was run?
Answer: 75 nM

Question: Which Ki does the source give for `Cc1cccc(C#Cc2cn(-c3ccn(CCO)c(=O)c3)c(C)n2)c1` [Example 11, 1-(2-Hydroxy-ethyl)-4-(2-methyl-4-m-tolylethynyl-imidazol-1-yl)-1H-pyridin-2-one] here?
Answer: 265 nM

Question: Which Ki does the source give for `COCCn1ccc(-n2cc(C#Cc3cccc(C)c3)nc2C)cc1=O` [Example 12, 1-(2-Methoxy-ethyl)-4-(2-methyl-4-m-tolylethynyl-imidazol-1-yl)-1H-pyridin-2-one] here?
Answer: 40 nM

Question: For `CCOC(=O)Cn1ccc(-n2cc(C#Cc3cccc(C)c3)nc2C)cc1=O` [Example 13, [4-(2-Methyl-4-m-tolylethynyl-imidazol-1-yl)-2-oxo-2H-pyridin-1-yl]-acetic acid ethyl ester], which Ki is on record?
Answer: 94 nM

Question: Which Ki does the source give for `Cc1nc(C#Cc2cccc(Cl)c2)cn1-c1cccc(O)n1` [Example 14, 6-[4-(3-chloro-phenylethynyl)-2-methyl-imidazol-1-yl]-pyridin-2-ol] here?
Answer: 42 nM

Question: Which Ki does the source give for `Cc1nc(C#Cc2cccc(Cl)c2)cn1-c1cccc(=O)n1C` [Example 15, 6-[4-(3-chloro-phenylethynyl)-2-methyl-imidazol-1-yl]-1-methyl-1H-pyridin-2-one] here?
Answer: 154 nM

Question: For `Cc1nc(C#Cc2cccc(Cl)c2)cn1-c1cncc(=O)[nH]1` [Example 16, 6-[4-(3-chloro-phenylethynyl)-2-methyl-imidazol-1-yl]-1H-pyrazin-2-one], which Ki is on record?
Answer: 659 nM

Question: Which Ki does the source give for `Cc1nc(C#Cc2ccnc(Cl)c2)cn1-c1cccc(O)n1` [Example 17, 6-[4-(2-chloro-pyridin-4-ylethynyl)-2-methyl-imidazol-1-yl]-pyridin-2-ol] here?
Answer: 144 nM

Question: `Cc1nc(C#Cc2ccnc(Cl)c2)cn1-c1cccc(=O)n1C` [Example 18, 6-[4-(2-chloro-pyridin-4-ylethynyl)-2-methyl-imidazol-1-yl]-1-methyl-1H-pyridin-2-one] was tested. Which Ki did it give?
Answer: 559 nM

Question: `Cc1nc(C#Cc2ccnc(Cl)c2)cn1-c1cncc(=O)[nH]1` [Example 19, 6-[4-(2-chloro-pyridin-4-ylethynyl)-2-methyl-imidazol-1-yl]-1H-pyrazin-2-one] was tested. Which Ki did it give?
Answer: 504 nM

Question: For `Cc1nc(C#Cc2ccnc(Cl)c2)cn1-c1cncc(=O)n1C` [Example 20, 6-[4-(2-chloro-pyridin-4-ylethynyl)-2-methyl-imidazol-1-yl]-1-methyl-1H-pyrazin-2-one], which Ki is on record?
Answer: 817 nM

Question: How did the Ki turn out when `Cc1nc(C#Cc2cccc(Cl)c2)cn1-c1cnn(C)c(=O)c1` [Example 21, 5-[4-(3-chloro-phenylethynyl)-2-methyl-imidazol-1-yl]-2-methyl-2H-pyridazin-3-one] was run?
Answer: 40 nM

Question: How did the Ki turn out when `Cc1nc(C#Cc2ccnc(Cl)c2)cn1-c1cnn(C)c(=O)c1` [Example 22, 5-[4-(2-chloro-pyridin-4-ylethynyl)-2-methyl-imidazol-1-yl]-2-methyl-2H-pyridazin-3-one] was run?
Answer: 384 nM

Question: Which Ki does the source give for `Cc1cccc(C#Cc2cn(-c3cnn(C)c(=O)c3)c(C)n2)c1` [Example 23, 2-Methyl-5-(2-methyl-4-m-tolylethynyl-imidazol-1-yl)-2H-pyridazin-3-one] here?
Answer: 52 nM

Question: With `Cc1nc(C#Cc2ccnc(Cl)c2)cn1-c1cc(=O)n(C)cn1` [Example 24, 6-[4-(2-chloro-pyridin-4-ylethynyl)-2-methyl-imidazol-1-yl]-3-methyl-3H-pyrimidin-4-one] as the compound, how does the Ki read?
Answer: 277 nM

Question: With `Cc1nc(C#Cc2cccc(Cl)c2)c(C)n1-c1cc[nH]c(=O)c1` [Example 25, 4-[4-(3-chloro-phenylethynyl)-2,5-dimethyl-imidazol-1-yl]-1H-pyridin-2-one] as the compound, how does the Ki read?
Answer: 148 nM

Question: `Cc1nc(C#Cc2cccc(Cl)c2)c(C)n1-c1ccn(C)c(=O)c1` [Example 26, 4-[4-(3-chloro-phenylethynyl)-2,5-dimethyl-imidazol-1-yl]-1-methyl-1H-pyridin-2-one] was tested. Which Ki did it give?
Answer: 33 nM

Question: Which Ki does the source give for `CCn1ccc(-n2c(C)nc(C#Cc3cccc(Cl)c3)c2C)cc1=O` [Example 27, 4-[4-(3-chloro-phenylethynyl)-2,5-dimethyl-imidazol-1-yl]-1-ethyl-1H-pyridin-2-one] here?
Answer: 40 nM

Question: How did the Ki turn out when `Cc1nc(C#Cc2cccc(Cl)c2)c(C)n1-c1ccn(CCO)c(=O)c1` [Example 28, 4-[4-(3-chloro-phenylethynyl)-2,5-dimethyl-imidazol-1-yl]-1-(2-hydroxy-ethyl)-1H-pyridin-2-one] was run?
Answer: 222 nM

Question: Which Ki does the source give for `COCCn1ccc(-n2c(C)nc(C#Cc3cccc(Cl)c3)c2C)cc1=O` [Example 29, 4-[4-(3-chloro-phenylethynyl)-2,5-dimethyl-imidazol-1-yl]-1-(2-methoxy-ethyl)-1H-pyridin-2-one] here?
Answer: 58 nM

Question: `Cc1cccc(C#Cc2nc(C)n(-c3cc[nH]c(=O)c3)c2C)c1` [Example 30, 4-(2,5-dimethyl-4-m-tolylethynyl-imidazol-1-yl)-1H-pyridin-2-one] was tested. Which Ki did it give?
Answer: 211 nM

Question: With `Cc1cccc(C#Cc2nc(C)n(-c3ccn(C)c(=O)c3)c2C)c1` [Example 31, 4-[2,5-dimethyl-4-m-tolylethynyl-imidazol-1-yl]-1-methyl-1H-pyridin-2-one] as the compound, how does the Ki read?
Answer: 61 nM

Question: How did the Ki turn out when `CCn1ccc(-n2c(C)nc(C#Cc3cccc(C)c3)c2C)cc1=O` [Example 32, 4-[2,5-dimethyl-4-m-tolylethynyl-imidazol-1-yl]-1-ethyl-1H-pyridin-2-one] was run?
Answer: 46 nM
